Test results reported in patent US12076320B2, “Diarylpyrazole compound, composition comprising same, and use thereof” (Shenzhen TargetRx, Inc., priority 2018, dated 2024).

Legend:
[1] = Metabolic stability evaluation in rat liver microsomes; type: in vitro ADME, SD rat; settings: rat liver microsomes 0.5 mg/mL, compound 1 μM; for microsomal CLint at 1 μM / half-life at 1 μM: SD, pH 7.4; for microsomal CLint at 1 μM: read-out: RLM CL; for half-life at 1 μM: read-out: RLM T1/2
Protocol: (§1) Microsome assay: human liver microsomes (HLM): 0.5 mg/mL, Xenotech; rat liver microsomes (RLM): 0.5 mg/mL, Xenotech; coenzyme (NADPH/NADH): 1 mM, Sigma Life Science; magnesium chloride: 5 mM, 100 mM phosphate buffer (pH 7.4).
(§2) Preparation of stock solutions: Powders of the example compounds and the control compound were accurately weighed and dissolved in DMSO to 5 mM respectively.
(§3) Preparation of phosphate buffer (100 mM, pH 7.4): A pre-prepared 0.5 M potassium dihydrogen phosphate solution (150 mL) was mixed with a pre-prepared 0.5 M dibasic potassium phosphate solution (700 mL). The pH of the mixture was adjusted to 7.4 with a 0.5 M dibasic potassium phosphate solution. The mixture was diluted 5-fold with ultrapure water before use, and magnesium chloride was added to obtain a phosphate buffer (100 mM) containing 100 mM potassium phosphate, 3.3 mM magnesium chloride, pH 7.4.
(§4) A NADPH regeneration system solution (containing 6.5 mM NADP, 16.5 mM G-6-P, 3 U/mL G-6-P D, 3.3 mM magnesium chloride) was prepared and placed on wet ice before use.
(§5) Preparation of stop solution: an acetonitrile solution containing 50 ng/mL propranolol hydrochloride and 200 ng/mL tolbutamide (internal standard). 25057.5 μL of phosphate buffer (pH 7.4) was added into a 50 mL centrifuge tube, to which 812.5 μL of human liver microsomes were then added and mixed well to obtain a liver microsome dilution with a protein concentration of 0.625 mg/mL. 25057.5 μL of phosphate buffer (pH 7.4) was added into a 50 mL centrifuge tube, to which 812.5 μL of SD rat liver microsomes were then added and mixed well to obtain a liver microsome dilution with a protein concentration of 0.625 mg/mL.
(§6) Incubation of the samples: The stock solutions of the respective compounds were respectively diluted to 0.25 mM with an aqueous solution containing 70% acetonitrile, and used as a working solution, ready for use. 398 μL of the dilutions of human liver microsomes or rat liver microsomes were added to 96-well incubation plates (N=2), respectively, and 2 μL of 0.25 mM working solution was added respectively and nixed.
(§7) Metabolic stability assay: 300 μL of pre-chilled stop solution was added to each well of 96-well deep well plates and placed on ice as stop plates. The 96-well incubation plates and NADPH regeneration system were placed in a 37° C. water bath, shaken at 100 rpm and pre-incubated for 5 min. 80 μL of incubation solution was taken out from each well of the incubation plates, added to the stop plates, mixed well, and replenished with 20 μL of NADPH regeneration system solution. The resulting mixture was used as a 0-min sample. 80 μL of NADPH regeneration system solution was added to each well of the incubation plates to start the reaction and start counting. […] At 10, 30, and 90 minutes of the reaction, respectively, 100 μL of the reaction solutions were taken out, added to the stop plates, and vortexed for 3 minutes to stop the reaction. The stop plates were centrifuged at 5000×g at 4° C. for 10 min. 100 μL of the supernatant was taken out, added to a 96-well plate pre-added with 100 μL of distilled water, mixed well, and analyzed by LC-MS/MS.
(§8) Data analysis: The peak areas of the corresponding compounds and internal standard were detected by LC-MS/MS system, and the ratio of the peak area of the compounds to the internal standard was calculated.

[2] = Metabolic stability evaluation in human liver microsomes; type: in vitro ADME; settings: human liver microsomes 0.5 mg/mL, compound 1 μM; for microsomal CLint at 1 μM / half-life at 1 μM: pH 7.4; for microsomal CLint at 1 μM: read-out: HLM CL; for half-life at 1 μM: read-out: HLM T1/2
Protocol: as §1, §2, §3, §4, §5, §6, §7, §8

[3] = at weakly acidic and neutral pH; cited from earlier work
[4] = tested on: HT-29 colorectal cancer cell line with BRAF V600E mutation; experiment: Cytotoxicity assay (CTG, 72 hours); type: cell-based; settings: Homo sapiens, HT-29 cells
Protocol: The cell viability was detected by trypan blue exclusion method to ensure that the cell viability was greater than 90%. The cells were inoculated in a 96-well plate and cultured overnight under the condition of 37° C. and 5% CO2. The 10-fold drug solutions were prepared by a 3.16-fold serial dilution starting from a maximum concentration of 1 μM, resulting in 9 concentrations. 10 μL of the drug solutions were added to each well of the 96-well plate in triplicate, and the incubation was further continued for 72 hours. An equal volume of CTG solution was added to each well, and the cell plate w as shaked on an orbital shaker for 5 minutes to lyse the cells. The cell plate was placed at room temperature for 20 minutes to stabilize the luminescence signal, and the luminescence values were then read on a SpectraMax multi-label microplate reader (MD, 2104-0010A). The data were analyzed with GraphPad Prism 5.0 software, and fitted using the non-linear S-curve regression to obtain a dose-effect curve, from which IC50 values were calculated accordingly.

Row | microsomal CLint at 1 μM [1] [µL/min/mg] | half-life at 1 μM [1] [h] | microsomal CLint at 1 μM [2] [µL/min/mg] | half-life at 1 μM [2] [h] | RLM CL [1] [µL/min/mg] | RLM T1/2 [1] [h] | HLM CL [2] [µL/min/mg] | HLM T1/2 [2] [h] | Compound | water-solubility [3] | IC50 [4] [nM]
1 | 11.8 | 1.95 | 9.47 | 2.44 |  |  |  |  | [2H]C([2H])([2H])C([2H])(n1cc(-c2ccnc(NC[C@H](C)NC(=O)OC)n2)c(-c2cc(Cl)cc(NS(C)(=O)=O)c2F)n1)C([2H])([2H])[2H] (single isomer, unassigned) [L-1] |  | 
2 | 16.8 | 1.38 | 9.07 | 2.55 |  |  |  |  | [2H]C([2H])([2H])OC(=O)N[C@@H](C)CNc1nccc(-c2cn(C(C)C)nc2-c2cc(Cl)cc(NS(C)(=O)=O)c2F)n1 (single isomer, unassigned) [L-2] |  | 
3 | 11.3 | 2.04 | 4.87 | 4.75 |  |  |  |  | [2H]C([2H])([2H])OC(=O)N[C@@H](C)CNc1nccc(-c2cn(C([2H])(C([2H])([2H])[2H])C([2H])([2H])[2H])nc2-c2cc(Cl)cc(NS(C)(=O)=O)c2F)n1 (single isomer, unassigned) [L-3] |  | 
4 | 16.7 | 1.38 | 12.5 | 1.85 |  |  |  |  | [2H]C([2H])([2H])[C@H](NC(=O)OC)C([2H])([2H])Nc1nccc(-c2cn(C(C)C)nc2-c2cc(Cl)cc(NS(C)(=O)=O)c2F)n1 (single isomer, unassigned) [L-4-S] |  | 
5 | 17.4 | 1.33 | 17.3 | 1.33 |  |  |  |  | COC(=O)N[C@@H](C)CNc1nccc(-c2cn(C(C)C)nc2-c2cc(Cl)cc(NS(C)(=O)=O)c2F)n1 [Encorafenib, (S)-methyl (1-((4-(3-(5-chloro-2-fluoro-3-(methylsulfonamido)phenyl)-1-isopropyl-1H-pyrazol-4-yl)pyrimidin-2-yl)amino)propan-2-yl)carbamate, reference compound] | poor | 8.96
6 |  |  |  |  | 10.22 | 2.2595 | 5.69 | 4.0628 | [2H]C([2H])([2H])[C@H](NC(=O)OC)C([2H])([2H])Nc1nccc(-c2cn(C([2H])(C([2H])([2H])[2H])C([2H])([2H])[2H])nc2-c2cc(Cl)cc(NS(C)(=O)=O)c2F)n1 [L-5-S, (S)-methyl (1-((4-(3-(5-chloro-2-fluoro-3-(methylsulfonamido)phenyl)-1-(propan-2-yl-d7)-3-1H-pyrazol-4-yl)pyrimidin-2-yl)amino)propan-2-yl-1,1,3,3,3-d5)carbamate] |  | 
